Measured values reported in publication PMC5956543, “Antimicrobial and antioxidant activities of triterpenoid and phenolic derivatives from two Cameroonian Melastomataceae plants: Dissotis senegambiensis and Amphiblemma monticola” (BMC Complementary and Alternative Medicine, 2018).
In brackets after ≈: the same amount, converted by molar mass.

What was measured:
C. tropicalis PK233 = assay: Broth microdilution antimicrobial assay (MIC/MMC); type: cell-based, Candida tropicalis
Description: (§1) The microorganisms used in this study include four bacterial (Staphylococcus aureus ATCC25923, methicillin sensitive S. aureus MSSA1, methicillin resistant S. aureus MRSA3 and methicillin resistant S. aureus MRSA4) and three yeast strains (Candida albicans ATCC10231, Candida tropicalis PK233 and Cryptococcus neoformans H99). These microorganisms were taken from our laboratory collection. The fungal and bacterial strains were grown at 37 °C and maintained on Sabouraud Dextrose Agar (SDA, Conda, Madrid, Spain) and nutrient agar (NA, Conda) slants respectively.
(§2) The inocula of bacteria and yeasts were prepared from overnight cultures as previously described. Absorbance was read spectrophotometrically at 530 nm and 600 nm for yeasts and bacteria respectively. The final concentrations of microbial suspensions were 2.5 × 10^5 cells/mL for yeasts and 10^6 CFU/mL for bacteria.
(§3) The antimicrobial activity was evaluated by determining the minimum inhibitory concentrations (MICs). MICs of extracts and compounds were determined by broth micro dilution. Each test sample was dissolved in 10% v/v aqueous dimethylsulfoxide (DMSO) to give a stock solution. This was serially diluted two-fold in Mueller-Hinton Broth (MHB) for bacteria and Sabouraud Dextrose Broth (SDB) for fungi to obtain a concentration range of 4096 to 0.25 μg/mL. Then, 100 μL of each sample concentration was added to respective wells (96-well micro plate) containing 90 μL of SDB/ MHB and 10 μL of inoculum to give final concentration ranges of 2048 to 4 μg/mL (for extracts) and 256 to 0.125 μg/mL (for compounds). Dilutions of nystatin (Sigma-Aldrich, Steinheim, Germany) and ciprofloxacin (Sigma-Aldrich, Steinheim, Germany) were used as positive controls for yeasts and bacteria respectively. Broth with 10 μL of DMSO was used as negative control. The cultured micro plates were covered; then, the contents of each well were mixed thoroughly using a plate shaker (Flow Laboratory, Germany) and incubated at 37 °C for 24 h (bacteria) and 48 h (yeasts) under shaking. After the incubation period, MICs were assessed visually and were taken as the lowest sample concentration at which there was no growth or virtually no growth. The lowest concentration that yielded no growth after the sub-culturing was considered as the minimum microbicidal concentrations (MMCs). All the tests were performed in triplicate.

[1] = test system: bacterial and fungal strains; assay: Broth microdilution MIC, range over all tested strains; type: cell-based
Description: as §1, §2, §3

yeast strains = assay: Broth microdilution MIC, range over the yeast strains; type: cell-based; details: range over the three yeast strains
Description: as §1, §2
The antimicrobial activity was evaluated by determining the minimum inhibitory concentrations (MICs). MICs of extracts and compounds were determined by broth micro dilution. Each test sample was dissolved in 10% v/v aqueous dimethylsulfoxide (DMSO) to give a stock solution. […] After the incubation period, MICs were assessed visually and were taken as the lowest sample concentration at which there was no growth or virtually no growth. […]

C. neoformans H99 = assay: Broth microdilution antimicrobial assay (MIC/MMC); type: cell-based, Cryptococcus neoformans
Description: as §1, §2, §3

S. aureus MRSA3 = assay: Broth microdilution antimicrobial assay (MIC/MMC); type: cell-based, Staphylococcus aureus
Description: as §1, §2, §3

S. aureus MRSA4 = assay: Broth microdilution antimicrobial assay (MIC/MMC); type: cell-based, Staphylococcus aureus
Description: as §1, §2, §3

S. aureus MSSA1 = assay: Broth microdilution antimicrobial assay (MIC/MMC); type: cell-based, Staphylococcus aureus
Description: as §1, §2, §3

S. aureus ATCC25923 = assay: Broth microdilution antimicrobial assay (MIC/MMC); type: cell-based, Staphylococcus aureus
Description: as §1, §2, §3

C. albicans ATCC10231 = assay: Broth microdilution antimicrobial assay (MIC/MMC); type: cell-based, Candida albicans
Description: as §1, §2, §3

[2] = Staphylococcus aureus, 37 °C, 24 h
[3] = Staphylococcus aureus, 24 h, no growth after sub-culturing

`O=c1oc2c(O)c(O)cc3c(=O)oc4c(O)c(O)cc1c4c23` [Compound 10, ellagic acid] showed an MMC/MIC (C. tropicalis PK233) of 1, an MIC (C. tropicalis PK233; Candida tropicalis, 37 °C, 48 h, read-out: MIC) of 8 µg/mL (≈ 26.5 µM) and an MFC (C. tropicalis PK233; Candida tropicalis, 48 h, no growth after sub-culturing) of 8 µg/mL (≈ 26.5 µM). The “antimicrobial activity (in words)” value ([1]; all the tested bacterial and fungal species) was “active against all the tested bacterial and fungal species”, the MIC ([1]; range over all bacterial and fungal strains, read-out: MIC) was 8 to 32 µg/mL (≈ 26.5 to 106 µM) and the MIC (yeast strains) was 8 to 16 µg/mL (≈ 26.5 to 52.9 µM). The MMC/MIC (C. neoformans H99) was 1, the MIC (C. neoformans H99; Cryptococcus neoformans, 37 °C, 48 h, read-out: MIC) was 16 µg/mL (≈ 52.9 µM) and the MFC (C. neoformans H99; Cryptococcus neoformans, 48 h, no growth after sub-culturing) was 16 µg/mL (≈ 52.9 µM). For the same molecule, the “activity against methicillin-resistant S. aureus (in words)” value (S. aureus MRSA3; MRSA3) was “prominent activity”, the MMC/MIC (S. aureus MRSA3; S. aureus MRSA3) was 2 and the MBC (S. aureus MRSA3; Staphylococcus aureus, 24 h, S. aureus MRSA3, no growth after sub-culturing) was 64 µg/mL (≈ 212 µM). For the same molecule, the MIC (S. aureus MRSA3; Staphylococcus aureus, S. aureus MRSA3, 37 °C, 24 h) was 32 µg/mL (≈ 106 µM), the “activity against methicillin-resistant S. aureus (in words)” value (S. aureus MRSA4; MRSA4) was “prominent activity” and the MMC/MIC (S. aureus MRSA4; S. aureus MRSA4) was 1. It also gave an MBC (S. aureus MRSA4; Staphylococcus aureus, 24 h, S. aureus MRSA4, no growth after sub-culturing) of 32 µg/mL (≈ 106 µM), an MIC (S. aureus MRSA4; Staphylococcus aureus, S. aureus MRSA4, 37 °C, 24 h) of 32 µg/mL (≈ 106 µM) and an MMC/MIC (S. aureus MSSA1) of 1. For the same molecule, the MIC (S. aureus MSSA1; [2]) was 16 µg/mL (≈ 52.9 µM), the MBC (S. aureus MSSA1; [3]) was 16 µg/mL (≈ 52.9 µM) and the MMC/MIC (S. aureus ATCC25923) was 2. The MIC (S. aureus ATCC25923; [2]) was 8 µg/mL (≈ 26.5 µM), the MBC (S. aureus ATCC25923; [3]) was 16 µg/mL (≈ 52.9 µM) and the MMC/MIC (C. albicans ATCC10231) was 1. The MIC (C. albicans ATCC10231; Candida albicans, 37 °C, 48 h, read-out: MIC) was 16 µg/mL (≈ 52.9 µM) and the MMC (C. albicans ATCC10231; no growth after sub-culturing) was 16 µg/mL.
